Data taken from patent US20250179028A1, “ACRYLAMIDE COMPOUNDS” (NRG THERAPEUTICS LTD, priority 2022, published 2025).
Values after ≈ are worked out from the molar mass of the structure shown. Read-outs that look alike come from different tables or passages of the source.

Assays:
[1] = Hepatocyte clearance assay, human; assay type: in vitro ADME; conditions: average value from two experiments, read-out: Human heps Clint
Description: (§1) In vitro clearance studies were performed in primary rat and human hepatocytes (BiolVT). Vials of cryopreserved rat or human hepatocytes were thawed in a 37° C. water bath for 2 min. Cells were transferred into thawing medium (Williams' Medium E containing 30% Percoll, 1×GlutaMAX-1, 15 mM HEPES, 5% fetal bovine serum (FBS), 4 μg/ml insulin, 1 μM dexamethasone), centrifuged at 100 g for 10 min then resuspended in culture medium (Leibovitz's L-15 Medium) at a concentration of 0.5×10^6 viable cells/mL (number of viable cells assessed using AO/PI staining). Hepatocytes (198 μL) were transferred into wells of a 96-well non-coated plate and placed in a 37° C. incubator for 10 min. Test compound solutions were prepared from 10 mM stocks in DMSO, diluted to 100 μM in 50% (v/v in water) acetonitrile. Test compound samples (2 μl) were added to each well of hepatocytes and incubated at 37° C. Samples (25 μl) were collected at t=0, 15, 30, […] and 120 min, mixed with 6 volumes (150 μl) of acetonitrile containing internal standard (100 nM alprazolam, 200 nM caffeine and 100 nM tolbutamide), vortexed for 5 min and centrifuged for 45 min at 3220 g. An aliquot of supernatant (100 μL) was diluted with 100 μL ultra-pure water, and the mixture was used for LC/MS/MS analysis. All incubations were performed in duplicate. Peak areas were determined from extracted ion chromatograms. The slope value, k, was determined by linear regression of the natural logarithm of the remaining percentage of the parent drug vs. incubation time curve. The in vitro half-life (in vitro t½) was determined from the slope value: in vitro t½=0.693/k. Conversion of the in vitro t½ (in min) into the in vitro intrinsic clearance (in vitro CLint, in μL/min/1×10^6 cells) was done using the following equation (mean of duplicate determinations):
(§2) [formula] • V=incubation volume (0.2 mL) • N=number of hepatocytes per well (0.1×10^6 cells).

[2] = PBS and FaSSIF solubility; assay type: physicochemical; conditions: kinetic from dmso stock
Description: Test compounds were prepared as 10 mM stocks in DMSO and 15 μl samples transferred in duplicate into 1.5 mL glass flat bottom vials (BioTech Solutions). Fasted state simulated intestinal fluid (FaSSIF) or PBS (pH 7.4) was added to each vial to final volume of 500 μl. One PTFE encapsulated stir stick (V&P Scientific) was placed in each vial before sealing with PTFE/SIL plugs (BioTech Solutions). Vials were shaken at 1100 rpm for 2 hr at 25° C. Samples were then filtered through MultiScreen Solvinert filter plates (Millipore) via vacuum filtration. Aliquots of filtrate (5 μl) plus 5 μl DMSO were diluted in 490 μl 50% acetonitrile in water containing internal standard. The filtrate was analysed and quantified against a standard of known concentration using LC-MS/MS. Solubility values of the test compound and control compound were calculated as follows: […]

[3] = Hepatocyte clearance assay, rat; assay type: in vitro ADME; conditions: average value from two experiments, read-out: Rat heps Clint
Description: as §1, §2

mPTP = mPTP activity (Ca2+ retention) assay in isolated rat liver mitochondria; assay type: biochemical; conditions: for mPTP Rat liver pIC50: isolated rat liver mitochondria, average value from multiple experiments (n ≥ 2)
Description: Pharmacological inhibition or modulation of the mPTP can be measured in well characterised ‘Ca^2+ retention’ assays performed in isolated mitochondria. In vitro isolated mitochondria rapidly sequester exogenous Ca^2+ until the intramitochondrial Ca^2+ concentration reaches the threshold for mPTP activation. Once the pore is activated, mitochondrial integrity is compromised and the stored Ca^2+ is released. The distribution of Ca^2+ between extra- and intra-mitochondrial compartments can be measured in real time with the use of membrane-impermeant Ca^2+ sensitive fluorescent dyes. Depending on the configuration of the assay, inhibition or modulation of the mPTP either delays the opening of the pore or increases the concentration of Ca^2+ required to induce mPTP opening.
MPTP activity was measured in mitochondria freshly isolated from female Sprague Dawley (250 to 300 gram) rat livers using the following method. Cervical dislocation was performed on the rat. The liver was then perfused in-situ with ˜40 ml cold Dulbecco's Phosphate Buffered Saline (DPBS) prior to dissection and transferred into 30 ml Isolation Buffer (250 mM Sucrose, 10 mM KCl, 1 mM EGTA, 1 mM EDTA, 25 mM HEPES, adjusted to pH 7.5 with 1 M NaOH). Each lobe of the liver was then removed from the buffer, minced using tweezers and a scalpel into ˜5 mm pieces then transferred into a 50 ml Potterton dounce homogenization tube on ice containing 30 ml ice-cold centrifugation buffer (300 mM Trehalose, 25 mM HEPES, 1 mM EGTA, 1 mM EDTA, 10 mM KCl, adjusted to pH 7.5 with 1 M NaOH and supplemented with 0.1% bovine serum albumin (BSA) and complete protease inhibitor cocktail (one tablet of inhibitor per 50 mls of buffer). Homogenisation was carried out using a teflon pestle at 1800 rpm. The slurry was centrifuged at 800 g for 10 min at 4° C., then the supernatant centrifuged at 10,000 g for 10 min. The pellet was washed once with FLIPR assay buffer (75 mM Mannitol, 25 mM Sucrose, 5 mM Potassium Phosphate Monobasic, 20 mM Tris base, 100 mM KCl, 0.1% BSA adjusted to pH 7.4 with 5M HCl) centrifuged again, then resuspended in FLIPR assay buffer to a concentration of 8.8 mg/ml protein.
Tested compounds (10 mM stock in DMSO) were serially diluted in DMSO in half log steps to generate 10 test concentrations (final concentrations in assay 30 μM to 1 nM). An intermediate dilution of 5 μl DMSO samples into 247 μl FLIPR assay buffer was carried out prior to transfer of 5 μl into duplicate wells of a 384 well polypropylene assay plate. Control wells were 0.5% (v/v) DMSO and 5 μM cyclosporin A.
A stock mitochondria/Fluo5N assay solution was prepared in 5.6 ml FLIPR assay buffer (at RT) supplemented with succinate disodium salt (10 mM), rotenone (1 μM), Fluo5N pentapotassium salt (2 μM) and 1 ml mitochondria suspension, then transferred (15 μl) into the assay plate containing test compounds and incubated for 10 min at RT. Assay plates were then transferred to a FLIPR Tetra plate reader (Molecular Devices). Dye fluorescence was then measured every 3 sec for a total of 10 min. After 12 sec, a 2.5 μl bolus of CaCl2 (75 μM) was added from a source plate containing 675 μM CaCl2 in FLIPR assay buffer. IC50 values for tested compounds were calculated using the fluorescence value collected at the 10 min timepoint with % inhibition calculated using the DMSO control and cyclosporin A values as […] respectively.

CYP2D6 = CYP2D6 (Homo sapiens (Human), UniProt P10635); experiment: Cytochrome P450 CYP2D6 inhibition in human liver microsomes; assay type: in vitro ADME; conditions: human liver microsomes, average value from two experiments; for inhibition at 20 min, 1 µM: probe dextromethorphan 2 µM (dextrorphan formation), 1 uM test compound, negative values = no effective inhibition
Description: Studies to assess tested compound mediated inhibition of cytochrome P450 enzyme isoform CYP2D6 were performed using human liver microsomes (BD Gentest) using either a single concentration (1 μM) of test compound or concentration response (0.1, 0.3, 1, 3, 10 and 30 μM) to derive an IC50. Tested compound solutions were prepared from 10 mM stocks in DMSO and diluted to 200 μM in DMSO. Reactions were prepared in a 96 deep well plate by combining 1 μl test compound with 179 μl reaction mixture (100 mM phosphate buffered saline (PBS), 0.2 mg/mL microsomes and 2 μM Dextromethorphan prepared from stocks as detailed below).
The positive control inhibitor, quinidine, was used at a final concentration of 0.5 μM when used at a single concentration. The final concentrations of quinidine used to derive an IC50 were 0, 0.1, 0.3, 1, 3, 10 and 30 μM. Plates were warmed at 37° C. for 15 min before starting reactions with 20 μl 10 mM NADPH solution in PBS and incubated for 20 min at 37° C. The assay is performed in duplicate. Reactions were quenched with 200 μl cold acetonitrile containing internal standards (200 nM labetalol, 200 nM alprazolam and 100 nM tolbutamide). The plate was centrifuged at 4000 rpm for 30 minutes, placed on ice for 20 minutes and then centrifuged at 4000 rpm for 30 minutes again to precipitate protein. 100 μL of the supernatant was transferred to a new plate and diluted with 100 μL pure water before being analysed using UPLC/MS/MS. The products of the transformation for dextromethorphan to dextrorphan was monitored by UPLC-MS/MS. The inhibition of CYP2D6 in human liver microsomes was measured as the percentage decrease in the activity of dextrorphan formation compared to non-inhibited controls (=100% activity). The IC50 value was calculated (test compound concentration which produces 50% inhibition) by using Excel Xlfit.

[4] = cryopreserved primary human hepatocytes
[5] = aqueous buffer, PBS pH 7.4, 2 hr at 25° C., read-out: Solubility PBS (pH 7.4)
[6] = cryopreserved primary rat hepatocytes
[7] = cryopreserved primary hepatocytes
[8] = fasted state simulated intestinal fluid (FaSSIF), fassif, Fasted state simulated intestinal fluid, 2 hr at 25° C., read-out: Solubility FaSSIF

Chain of CYP2D6 (P10635 whole entry, canonical isoform): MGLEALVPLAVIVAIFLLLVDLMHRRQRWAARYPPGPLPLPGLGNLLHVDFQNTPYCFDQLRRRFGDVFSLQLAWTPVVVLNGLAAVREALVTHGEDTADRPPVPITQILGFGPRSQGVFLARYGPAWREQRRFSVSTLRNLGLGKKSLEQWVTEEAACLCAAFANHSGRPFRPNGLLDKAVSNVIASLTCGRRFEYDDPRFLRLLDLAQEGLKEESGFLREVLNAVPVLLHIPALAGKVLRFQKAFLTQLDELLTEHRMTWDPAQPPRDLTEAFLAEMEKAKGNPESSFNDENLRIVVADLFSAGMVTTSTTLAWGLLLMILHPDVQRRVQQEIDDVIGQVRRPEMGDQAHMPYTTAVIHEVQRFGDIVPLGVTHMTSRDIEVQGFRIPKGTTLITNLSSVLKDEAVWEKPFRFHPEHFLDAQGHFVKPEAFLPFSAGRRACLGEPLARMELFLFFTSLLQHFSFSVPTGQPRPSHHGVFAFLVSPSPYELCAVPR

| Compound | hepatocyte CLint at 1 µM [1, 4] | solubility at 2 h [2, 5] | hepatocyte CLint at 1 µM [3, 6] | mPTP Rat liver pIC50 (mPTP) | inhibition at 20 min, 1 µM (CYP2D6) | hepatocyte CLint at 1 µM [1, 7] | solubility at 2 h [2, 8] | hepatocyte CLint at 1 µM [3, 7] | activity in the rat liver mitochondria assay (in words) (mPTP) | IC50 (CYP2D6) |
| --- | --- | --- | --- | --- | --- | --- | --- | --- | --- | --- |
| Cc1cc(F)c(F)c(C)c1NC(=O)/C=C/c1ccc2c(c1)NC(=O)C2 [Example 36, (E)-N-(3,4-difluoro-2,6-dimethylphenyl)-3-(2-oxoindolin-6-yl)acrylamide] | 7.26 µL/min/1e6 cells | 65.9 µM (≈ 22.6 µg/mL) | 9.41 µL/min/1e6 cells | 7.2 | -2.57% | – | – | – | – | – |
| O=C(/C=C/c1cc2[nH]nnc2cc1F)NC1CCc2ccccc21 (stereo not shown) [Example 27, (E)-N-(2,3-dihydro-1H-inden-1-yl)-3-(5-fluoro-1H-benzo[d][1,2,3]triazol-6-yl) acrylamide] | – | – | – | – | 14.3% | 9.6 µL/min/1e6 cells | 43.1 µM (≈ 13.9 µg/mL) | – | – | – |
| Cc1c(F)cc(F)c(C)c1NC(=O)/C=C/c1ccc2c(c1)NC(=O)C2 [Example 35, (E)-N-(3,5-difluoro-2,6-dimethylphenyl)-3-(2-oxoindolin-6-yl)acrylamide] | 8.33 µL/min/1e6 cells | – | – | 7.2 | 2.83% | – | 258 µM (≈ 88.4 µg/mL) | – | – | – |
| COc1n[nH]c2cc(/C=C/C(=O)N[C@H]3c4ccccc4C[C@@H]3OC)ccc12 [Example 71, (E)-3-(3-methoxy-1H-indazol-6-yl)-N-((1S,2S)-2-methoxy-2,3-dihydro-1H inden-1-yl)acrylamide] | 8.9 µL/min/1e6 cells | – | 72 µL/min/1e6 cells | 7.0 | 7.4% | – | 19.9 µM (≈ 7.25 µg/mL) | – | – | – |
| COCc1c(F)cccc1NC(=O)/C=C/c1ccc2c(C)n[nH]c2c1 [Example 50, (E)-N-(3-fluoro-2-(methoxymethyl)phenyl)-3-(3-methyl-1H-indazol-6-yl)acrylamide] | 15.6 µL/min/1e6 cells | – | 47.8 µL/min/1e6 cells | 7.3 | 1.3% | – | 23.7 µM (≈ 8.04 µg/mL) | – | – | – |
| COCc1c(F)cncc1NC(=O)/C=C/c1ccc2c(C)n[nH]c2c1 [Example 114, (2E)-N-[5-fluoro-4-(methoxymethyl)pyridin-3-yl]-3-(3-methyl-1H-indazol-6-yl)prop-2-enamide] | – | – | – | – | – | 3 µL/min/1e6 cells | 19 µM (≈ 6.47 µg/mL) | 76 µL/min/1e6 cells | – | – |
| Cc1c(F)cccc1NC(=O)/C=C/c1ccc2c(C)n[nH]c2c1 [Example 37, (E)-N-(3-fluoro-2-methylphenyl)-3-(3-methyl-1H-indazol-6-yl)acrylamide] | 18.9 µL/min/1e6 cells | – | 87.6 µL/min/1e6 cells | 8.1 | 5.04% | – | 2.95 µM (≈ 0.913 µg/mL) | – | highest activity | – |
| CO[C@H]1Cc2ccccc2[C@@H]1NC(=O)/C=C/c1ccc2c(Cl)n[nH]c2c1 [Example 72, (E)-3-(3-chloro-1H-indazol-6-yl)-N-((1S,2S)-2-methoxy-2,3-dihydro-1H-inden-1-yl)acrylamide] | – | – | – | – | 9.98% | 11.3 µL/min/1e6 cells | 24.4 µM (≈ 8.98 µg/mL) | 77 µL/min/1e6 cells | – | – |
| Cc1cccc(C)c1NC(=O)/C=C/c1ccc2c(c1)[nH]c(=O)n2C [Example 29, (E)-N-(2,6-dimethylphenyl)-3-(1-methyl-2-oxo-2,3-dihydro-1H-benzo[d]imidazol-5-yl)acrylamide] | – | 33.5 µM (≈ 10.8 µg/mL) | 16.1 µL/min/1e6 cells | 6.9 | -3.03% | – | 69.8 µM (≈ 22.4 µg/mL) | – | – | – |
| N#Cc1n[nH]c2cc(/C=C/C(=O)NC3CCc4ccccc43)ccc12 (stereo not shown) [Example 26, (E)-3-(3-cyano-1H-indazol-6-yl)-N-(2,3-dihydro-1H-inden-1-yl)acrylamide] | – | – | 87.5 µL/min/1e6 cells | 7.2 | 3.49% | – | – | – | – | 8.8 µM |
| O=C(/C=C/c1ccc2c(C(F)(F)F)n[nH]c2c1)NC1CCc2ccccc21 (stereo not shown) [Example 28, (E)-N-(2,3-dihydro-1H-inden-1-yl)-3-(3-(trifluoromethyl)-1H-indazol-6-yl) acrylamide] | – | – | – | – | 8.27% | – | – | 73.6 µL/min/1e6 cells | – | – |
